Results on 24 molecules are retold here after patent publication US9156827B2, “Anticancer agent” (THE UNIVERSITY OF TOKYO, priority 2010, dated 2015).

By inhibition is commonly meant how much of the control response was suppressed.

Where a name gives a salt, the structure may show the parent alone.

One test deals with pim-1 kinase (Homo sapiens, UniProt P11309). Description: Measurement of pim-1 kinase inhibitory activity (fluorescent substrate peptide, capillary electrophoresis). In kind it is biochemical. The note with it: 0.1 μM of each compound, 30 μM ATP, 1.5 μM substrate peptide, room temperature 2 hours; Table 1. On the procedure: Measurement of Pim-1 Kinase Inhibitory Activity
pim-1 kinase, sequence (P11309 whole entry): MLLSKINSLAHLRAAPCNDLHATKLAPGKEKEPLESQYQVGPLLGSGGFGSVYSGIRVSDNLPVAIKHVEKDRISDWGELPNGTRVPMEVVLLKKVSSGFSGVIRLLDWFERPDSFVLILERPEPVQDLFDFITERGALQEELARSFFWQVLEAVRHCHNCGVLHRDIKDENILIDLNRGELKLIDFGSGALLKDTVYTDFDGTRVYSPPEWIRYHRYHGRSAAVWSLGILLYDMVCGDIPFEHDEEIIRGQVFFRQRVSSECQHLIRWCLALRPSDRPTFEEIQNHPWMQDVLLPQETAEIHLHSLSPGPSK
The result of the reaction was determined by quantifying the substrate and the phosphorylated reaction product separated by capillary electrophoresis based on difference in charges of the substances (EZ Reader II, Caliper Life Sciences, was used).
As for `O=C1/C(=C/c2c[nH]c3ncccc23)Oc2c1ccc(O)c2CN1CCNCC1` [Compound A42, (Z)-2-[(1H-Pyrrolo[2,3-b]pyridin-3-yl)methylene]-6-hydroxy-7-(piperazin-1-ylmethyl)benzofuran-3(2H)-one trihydrochloride], the inhibition at 0.1 µM was determined as 96%.
On the same count and under the same terms, the figure for `CNCc1cccc2c(/C=C3\Oc4c(ccc(O)c4CN4CCNCC4)C3=O)c[nH]c12` [Compound A28, (Z)-6-Hydroxy-2-({7-[(methylamino)methyl]-1H-indol-3-yl}methylene)-7-(piperazin-1-ylmethyl)benzofuran-3(2H)-one trihydrochloride] is 10%.
In turn, `O=C1/C(=C/c2c[nH]c3nc(-c4ccccc4)ccc23)Oc2c1ccc(O)c2CN1CCNCC1` [Compound A49, (Z)-6-Hydroxy-2-[(6-phenyl-1H-pyrrolo[2,3-b]pyridin-3-yl)methylene]-7-(piperazin-1-ylmethyl)benzofuran-3(2H)-one trihydrochloride] gave an inhibition at 0.1 µM of 16%.
Same read-out and setting: for `O=C1/C(=C/c2c[nH]c3ccc(Cl)cc23)Oc2c1ccc(O)c2CN1CCNCC1` [Compound A21, (Z)-2-[(5-Chloro-1H-indol-3-yl)methylene]-6-hydroxy-7-(piperazin-1-ylmethyl)benzofuran-3(2H)-one dihydrochloride] the value was 94%.
With `C#Cc1ccc2c(/C=C3\Oc4c(ccc(O)c4CN4CCNCC4)C3=O)c[nH]c2n1` [Compound A50, (Z)-2-[(6-Ethynyl-1H-pyrrolo[2,3-b]pyridin-3-yl)methylene]-6-hydroxy-7-(piperazin-1-ylmethyl)benzofuran-3(2H)-one trihydrochloride], 0.1 µM produced 94% inhibition.
In turn, `Cc1ccc2c(/C=C3\Oc4c(cc(Cl)c(O)c4CN4CCNCC4)C3=O)c[nH]c2n1` [Compound A51, (Z)-5-Chloro-6-hydroxy-2-[(6-methyl-1H-pyrrolo[2,3-b]pyridin-3-yl)methylene]-7-(piperazin-1-ylmethyl)benzofuran-3(2H)-one trihydrochloride] came in with an inhibition at 0.1 µM of 94%.
The same measure, in the same setting: for `O=C1/C(=C/c2c[nH]c3nc(Br)ccc23)Oc2c1ccc(O)c2CN1CCNCC1` [Compound A47, (Z)-2-[(6-Bromo-1H-pyrrolo[2,3-b]pyridin-3-yl)methylene]-6-hydroxy-7-(piperazin-1-ylmethyl)benzofuran-3(2H)-one trihydrochloride] the value was 98%; for `COc1ccc2c(c1CN1CCNCC1)O/C(=C\c1c[nH]c3ncccc13)C2=O` [Compound A53, (Z)-2-[(1H-Pyrrolo[2,3-b]pyridin-3-yl)methylene]-6-methoxy-7-(piperazin-1-ylmethyl)benzofuran-3(2H)-one], 98%; for `O=C1/C(=C/c2c[nH]c3ccccc23)Oc2c1ccc(O)c2CN1CCC(O)CC1` [Compound A6, (Z)-2-[(1H-Indol-3-yl)methylene]-6-hydroxy-7-[(4-hydroxypiperidin-1-yl)methyl]benzofuran-3(2H)-one], 15%.
In turn, `CN1CCN(Cc2c(O)ccc3c2O/C(=C\c2c[nH]c4ncccc24)C3=O)CC1` [Compound A43, (Z)-2-[(1H-Pyrrolo[2,3-b]pyridin-3-yl)methylene]-6-hydroxy-7-[(4-methylpiperazin-1-yl)methyl]benzofuran-3(2H)-one] showed an inhibition at 0.1 µM of 56%.
Molecule `COc1ccc2c(c1CN1CCOCC1)O/C(=C\c1c[nH]c3ncccc13)C2=O` [Compound A54, (Z)-2-[(1H-Pyrrolo[2,3-b]pyridin-3-yl)methylene]-6-methoxy-7-(morpholinomethyl)benzofuran-3(2H)-one] came in with an inhibition at 0.1 µM of 72%.
`O=C1/C(=C/c2c[nH]c3c([N+](=O)[O-])cccc23)Oc2c1ccc(O)c2CN1CCNCC1` [Compound A27, (Z)-6-Hydroxy-2-[(7-nitro-1H-indol-3-yl)methylene]-7-(piperazin-1-ylmethyl)benzofuran-3(2H)-one dihydrochloride] showed an inhibition at 0.1 µM of 29%.
`Cc1ccc2c(/C=C3\Oc4c(ccc(O)c4CN4CCNCC4)C3=O)c[nH]c2n1` [Compound A48, (Z)-6-Hydroxy-2-[(6-methyl-1H-pyrrolo[2,3-b]pyridin-3-yl)methylene]-7-(piperazin-1-ylmethyl)benzofuran-3(2H)-one trihydrochloride]: the inhibition at 0.1 µM worked out at 97%.

Staying with this test, now noted: 0.1 μM of each compound, 30 μM ATP, 1.5 μM substrate peptide, room temperature 2 hours; Table 2.
`O=C1/C(=C/c2n[nH]c3ccc(F)cc23)Oc2c1ccc(O)c2CN1CCNCC1` [Compound B8, (Z)-6-Hydroxy-7-(piperazin-1-ylmethyl)-2-[(5-fluoro-1H-indazol-3-yl)methylene]benzofuran-3(2H)-one] displayed an inhibition at 0.1 µM of 81%.
The same measure, in the same setting: the figure for `O=C1/C(=C/c2n[nH]c3ccccc23)Oc2c1ccc(OCCO)c2CN1CCNCC1` [Compound B34, (Z)-2-[(1H-Indazol-3-yl)methylene]-6-(2-hydroxyethoxy)-7-(piperazin-1-ylmethyl)benzofuran-3(2H)-one] is 94%.
Same read-out and setting: for `O=C1CN(Cc2c(O)ccc3c2O/C(=C\c2n[nH]c4ccccc24)C3=O)CCN1` [Compound B6, (Z)-4-({2-[(1H-Indazol-3-yl)methylene]-6-hydroxy-3-oxo-2,3-dihydrobenzofuran-7-yl}methyl)piperazin-2-one] the value was 49%; for `O=C1/C(=C/c2n[nH]c3ccccc23)Oc2c1ccc(O)c2CN1CCNCC1` [Compound B1, (Z)-2-[(1H-Indazol-3-yl)methylene]-6-hydroxy-7-(piperazin-1-ylmethyl)benzofuran-3(2H)-one], 88%; for `COc1ccc2c(c1C(C)N1CCNCC1)O/C(=C\c1n[nH]c3ccccc13)C2=O` (stereo not drawn) [Compound B20, (Z)-2-[(1H-Indazol-3-yl)methylene]-6-methoxy-7-[1-(piperazin-1-yl)-ethyl]benzofuran-3(2H)-one], 95%.
Take `O=C1/C(=C/c2n[nH]c3ccc(Br)cc23)Oc2c1cc(Cl)c(O)c2CN1CCNCC1` [Compound B16, (Z)-5-Chloro-2-[(5-bromo-1H-indazol-3-yl)methylene]-6-hydroxy-7-(piperazin-1-ylmethyl)benzofuran-3(2H)-one]: the inhibition at 0.1 µM is 93%.
On the same count and under the same terms, for `COc1ccc2c(c1CN1CCOCC1)O/C(=C\c1n[nH]c3ccccc13)C2=O` [Compound B33, (Z)-2-[(1H-Indazol-3-yl)methylene]-6-methoxy-7-(morpholinomethyl)benzofuran-3(2H)-one] the value was 39%; for `O=C1/C(=C/c2n[nH]c3ccc(Br)cc23)Oc2c1ccc(O)c2CN1CCNCC1` [Compound B10, (Z)-6-Hydroxy-7-(piperazin-1-ylmethyl)-2-[(5-bromo-1H-indazol-3-yl)methylene]benzofuran-3(2H)-one], 94%; for `CN1CCN(Cc2c(O)ccc3c2O/C(=C\c2n[nH]c4ccccc24)C3=O)CC1` [Compound B4, (Z)-2-[(1H-Indazol-3-yl)methylene]-6-hydroxy-7-[(4-methylpiperazin-1-yl)methyl]benzofuran-3(2H)-one], 41%.
`O=C1/C(=C/c2n[nH]c3ccccc23)Oc2c1ccc(O)c2C(=O)N1CCNCC1` [Compound B36, (Z)-2-[(1H-Indazol-3-yl)methylene]-6-hydroxy-7-(piperazine-1-carbonyl)benzofuran-3(2H)-one] gave an inhibition at 0.1 µM of 31%.
`C[C@@H]1CN(Cc2c(O)ccc3c2O/C(=C\c2n[nH]c4ccccc24)C3=O)C[C@H](C)N1` [Compound B2]: the “Pim-1 kinase inhibitory activity (%)” value is on record as 61%.
